Test in all cases: biochemical
What all share (set-up): DiscoveRx KINOMEscan active site-directed competition binding; percent of control kinase bound to immobilised ligand

One experiment addresses T1, MEK2 (Homo sapiens, UniProt P36507).
T1 construct: gene MAP2K2

A further experiment deals with T2, EPHB1 (Homo sapiens, UniProt P54762).
T2 sequence (P54762 1-984): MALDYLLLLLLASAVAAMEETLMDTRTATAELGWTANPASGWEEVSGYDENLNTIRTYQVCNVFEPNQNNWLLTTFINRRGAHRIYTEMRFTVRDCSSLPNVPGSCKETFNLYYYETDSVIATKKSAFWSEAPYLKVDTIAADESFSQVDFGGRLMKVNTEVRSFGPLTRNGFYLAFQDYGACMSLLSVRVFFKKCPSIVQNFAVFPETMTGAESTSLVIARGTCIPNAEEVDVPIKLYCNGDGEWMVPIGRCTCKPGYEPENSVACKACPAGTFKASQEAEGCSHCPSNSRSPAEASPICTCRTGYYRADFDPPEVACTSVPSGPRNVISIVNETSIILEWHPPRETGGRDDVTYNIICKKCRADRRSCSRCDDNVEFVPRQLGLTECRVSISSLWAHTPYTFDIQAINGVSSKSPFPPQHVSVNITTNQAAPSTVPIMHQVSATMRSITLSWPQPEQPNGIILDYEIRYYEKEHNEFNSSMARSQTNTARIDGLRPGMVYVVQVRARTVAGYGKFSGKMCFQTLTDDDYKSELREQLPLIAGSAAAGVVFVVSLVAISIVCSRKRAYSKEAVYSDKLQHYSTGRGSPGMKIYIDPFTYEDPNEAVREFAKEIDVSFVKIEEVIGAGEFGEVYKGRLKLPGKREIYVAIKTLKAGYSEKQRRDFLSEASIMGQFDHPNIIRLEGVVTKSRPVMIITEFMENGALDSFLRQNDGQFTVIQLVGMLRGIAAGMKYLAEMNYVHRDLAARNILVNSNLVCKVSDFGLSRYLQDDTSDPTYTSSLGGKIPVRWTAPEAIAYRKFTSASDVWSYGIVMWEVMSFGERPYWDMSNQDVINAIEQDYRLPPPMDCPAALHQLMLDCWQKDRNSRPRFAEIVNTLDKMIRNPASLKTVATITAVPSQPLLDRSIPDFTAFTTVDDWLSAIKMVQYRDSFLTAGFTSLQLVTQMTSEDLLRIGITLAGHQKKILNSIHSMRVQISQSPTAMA

The target in the next experiment is T3, PDPK1 (Homo sapiens, UniProt O15530).
T3 sequence (O15530 1-556): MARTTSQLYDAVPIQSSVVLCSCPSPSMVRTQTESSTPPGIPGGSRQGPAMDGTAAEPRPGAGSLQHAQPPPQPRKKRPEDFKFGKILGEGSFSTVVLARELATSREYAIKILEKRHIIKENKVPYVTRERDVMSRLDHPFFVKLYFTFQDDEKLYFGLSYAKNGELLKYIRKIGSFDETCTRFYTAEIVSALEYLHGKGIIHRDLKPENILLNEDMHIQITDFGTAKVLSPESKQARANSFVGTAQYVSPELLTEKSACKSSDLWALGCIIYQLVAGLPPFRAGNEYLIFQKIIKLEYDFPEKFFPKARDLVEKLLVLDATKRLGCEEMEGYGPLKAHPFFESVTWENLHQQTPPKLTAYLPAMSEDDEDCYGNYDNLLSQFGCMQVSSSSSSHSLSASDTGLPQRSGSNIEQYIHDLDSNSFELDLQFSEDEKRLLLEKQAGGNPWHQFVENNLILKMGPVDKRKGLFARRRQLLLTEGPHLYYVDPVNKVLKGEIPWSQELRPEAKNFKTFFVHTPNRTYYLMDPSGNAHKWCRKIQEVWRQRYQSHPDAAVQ

A further experiment deals with T4, TAK1 (Homo sapiens, UniProt O43318).
T4 construct: gene MAP3K7
T4 sequence (O43318 1-606): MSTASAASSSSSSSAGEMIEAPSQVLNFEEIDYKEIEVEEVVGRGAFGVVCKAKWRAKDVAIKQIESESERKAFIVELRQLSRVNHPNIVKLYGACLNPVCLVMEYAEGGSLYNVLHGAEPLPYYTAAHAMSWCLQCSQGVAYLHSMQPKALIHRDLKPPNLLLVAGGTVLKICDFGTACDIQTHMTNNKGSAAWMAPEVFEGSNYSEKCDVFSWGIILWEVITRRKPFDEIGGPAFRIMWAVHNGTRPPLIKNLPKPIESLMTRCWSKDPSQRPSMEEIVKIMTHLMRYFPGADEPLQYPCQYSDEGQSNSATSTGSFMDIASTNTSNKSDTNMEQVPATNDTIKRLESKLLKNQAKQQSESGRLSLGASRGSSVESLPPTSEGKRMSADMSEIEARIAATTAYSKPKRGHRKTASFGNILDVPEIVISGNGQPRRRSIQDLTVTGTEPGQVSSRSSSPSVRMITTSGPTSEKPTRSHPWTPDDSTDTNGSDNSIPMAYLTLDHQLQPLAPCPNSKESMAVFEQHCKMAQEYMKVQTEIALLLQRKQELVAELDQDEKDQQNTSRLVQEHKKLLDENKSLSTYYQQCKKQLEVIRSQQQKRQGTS

The target in the next experiment is T5, PRKX (Homo sapiens, UniProt P51817).
T5 sequence (P51817 1-358): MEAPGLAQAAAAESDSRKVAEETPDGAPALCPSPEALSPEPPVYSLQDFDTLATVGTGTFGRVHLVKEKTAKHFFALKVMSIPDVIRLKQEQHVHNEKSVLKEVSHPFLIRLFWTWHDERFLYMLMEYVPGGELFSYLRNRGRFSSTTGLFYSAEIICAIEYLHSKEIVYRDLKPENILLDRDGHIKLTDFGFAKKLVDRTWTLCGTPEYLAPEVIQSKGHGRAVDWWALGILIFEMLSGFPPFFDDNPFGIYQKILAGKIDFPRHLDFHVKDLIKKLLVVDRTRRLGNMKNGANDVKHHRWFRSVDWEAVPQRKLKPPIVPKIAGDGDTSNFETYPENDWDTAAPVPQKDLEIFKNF

The target of a further experiment is LIMK1 (Homo sapiens, UniProt P53667).
Where [1] appears, read: read-out: Rucaparib / %Ctrl @ 10000nM, binding competition, % of control.
[2] abbreviates: read-out: Talazoparib (BMN 673) / %Ctrl @ 10000nM.
The mark [3] stands for this setting: read-out: Niraparib (MK-4827) / %Ctrl @ 10000nM.
The mark [4] stands for this setting: read-out: Olaparib / %Ctrl @ 10000nM.

Where two headings read alike, the source gives them in different places.

T1 sequence (P36507 whole entry): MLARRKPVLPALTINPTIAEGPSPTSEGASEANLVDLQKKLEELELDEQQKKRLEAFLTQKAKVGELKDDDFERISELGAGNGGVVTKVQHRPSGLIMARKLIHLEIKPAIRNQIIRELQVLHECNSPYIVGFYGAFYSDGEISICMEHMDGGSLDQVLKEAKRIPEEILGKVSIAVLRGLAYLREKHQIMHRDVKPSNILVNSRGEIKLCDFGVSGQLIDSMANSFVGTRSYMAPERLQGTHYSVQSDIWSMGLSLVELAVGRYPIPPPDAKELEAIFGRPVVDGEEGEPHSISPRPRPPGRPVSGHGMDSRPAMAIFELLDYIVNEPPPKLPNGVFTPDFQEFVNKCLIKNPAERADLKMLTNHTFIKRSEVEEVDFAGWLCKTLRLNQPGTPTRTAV
Sequence of LIMK1 (P53667 whole entry): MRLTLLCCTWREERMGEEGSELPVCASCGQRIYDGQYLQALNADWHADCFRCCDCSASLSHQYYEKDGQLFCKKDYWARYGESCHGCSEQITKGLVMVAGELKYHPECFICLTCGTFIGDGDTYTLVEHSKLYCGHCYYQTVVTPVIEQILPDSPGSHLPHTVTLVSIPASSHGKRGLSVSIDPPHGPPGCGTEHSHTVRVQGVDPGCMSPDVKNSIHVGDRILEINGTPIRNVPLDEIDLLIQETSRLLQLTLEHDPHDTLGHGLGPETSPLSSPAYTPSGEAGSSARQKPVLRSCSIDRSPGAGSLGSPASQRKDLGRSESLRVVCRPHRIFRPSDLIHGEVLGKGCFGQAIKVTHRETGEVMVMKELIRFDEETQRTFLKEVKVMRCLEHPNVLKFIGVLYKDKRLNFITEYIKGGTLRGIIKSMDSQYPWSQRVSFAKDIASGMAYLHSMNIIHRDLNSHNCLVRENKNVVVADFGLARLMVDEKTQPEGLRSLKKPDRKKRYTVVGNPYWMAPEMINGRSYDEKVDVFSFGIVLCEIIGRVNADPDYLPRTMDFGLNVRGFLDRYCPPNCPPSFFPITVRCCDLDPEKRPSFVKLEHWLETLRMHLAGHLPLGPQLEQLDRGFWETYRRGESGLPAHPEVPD

Regarding `CNCc1ccc(-c2[nH]c3cc(F)cc4c3c2CCNC4=O)cc1` [Rucaparib], the percent of control binding at 10 µM at MEK2 (setting [1]) amounted to 79%; at EPHB1 (setting [1]), 100%; on PDPK1 (setting [1]), 97%; at TAK1 (setting [1]) it was 38%; on PRKX (setting [1]), 92%; on LIMK1 (setting [1]), 100%.

With `Cn1ncnc1[C@H]1c2n[nH]c(=O)c3cc(F)cc(c23)N[C@@H]1c1ccc(F)cc1` [Talazoparib], the percent of control binding at 10 µM was 57% at MEK2 (setting [2]); 94% on EPHB1 (setting [2]); 85% at PDPK1 (setting [2]); 100% on TAK1 (setting [2]); 94% on PRKX (setting [2]); 99% on LIMK1 (setting [2]).

On to `NC(=O)c1cccc2cn(-c3ccc([C@@H]4CCCNC4)cc3)nc12` [Niraparib], for which the percent of control binding at 10 µM is 74% at MEK2 (setting [3]); 76% at EPHB1 (setting [3]); 80% on PDPK1 (setting [3]); 38% at TAK1 (setting [3]); 96% on PRKX (setting [3]); 82% on LIMK1 (setting [3]).

In the case of `O=C(c1cc(Cc2n[nH]c(=O)c3ccccc23)ccc1F)N1CCN(C(=O)C2CC2)CC1` [Olaparib], the percent of control binding at 10 µM was 87% on MEK2 (setting [4]); 99% on EPHB1 (setting [4]); 100% on PDPK1 (setting [4]); 77% at TAK1 (setting [4]); 88% at PRKX (setting [4]); 100% on LIMK1 (setting [4]).

The values above are taken from publication PMC7026418, “The kinase polypharmacology landscape of clinical PARP inhibitors” (Scientific Reports, 2020).
